Key:
TYK2 = molecular target: T1, TYK2 (Homo sapiens, UniProt P29597); experiment: Kinobeads assay, TYK2 (competition binding in mixed Molt4/Ramos cell lysate, dot blot detection); settings: Kinobeads assay, Molt4/Ramos lysate; read-out: TYK2 Band (Kinobeads assay potency, IC50)
T1 construct: endogenous in cells; host or cells: Molt4 (ATCC CRL-1582) and Ramos (ATCC CRL-1596), mixed lysate 1:2
Outline: (§1)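 Competition binding: compound dilutions (1:3 series, 9 steps) plus immobilized aminopyrido-pyrimidine beads incubated 3 h in the cold with mixed Molt4/Ramos lysate (1:2) at 10 mg/mL protein. Bead-bound JAK2/TYK2 eluted and quantified by antibody dot blot with infrared detection; IC50 from dose-response curves.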

JAK2 = molecular target: T2, JAK2 (Homo sapiens, UniProt O60674); experiment: Kinobeads assay, JAK2 (competition binding in mixed Molt4/Ramos cell lysate, dot blot detection); settings: read-out: JAK2 Band (Kinobeads assay potency, IC50)
T2 construct: endogenous in cells; host or cells: Molt4 (ATCC CRL-1582) and Ramos (ATCC CRL-1596), mixed lysate 1:2
Outline: as §1

T2 sequence (O60674 whole entry): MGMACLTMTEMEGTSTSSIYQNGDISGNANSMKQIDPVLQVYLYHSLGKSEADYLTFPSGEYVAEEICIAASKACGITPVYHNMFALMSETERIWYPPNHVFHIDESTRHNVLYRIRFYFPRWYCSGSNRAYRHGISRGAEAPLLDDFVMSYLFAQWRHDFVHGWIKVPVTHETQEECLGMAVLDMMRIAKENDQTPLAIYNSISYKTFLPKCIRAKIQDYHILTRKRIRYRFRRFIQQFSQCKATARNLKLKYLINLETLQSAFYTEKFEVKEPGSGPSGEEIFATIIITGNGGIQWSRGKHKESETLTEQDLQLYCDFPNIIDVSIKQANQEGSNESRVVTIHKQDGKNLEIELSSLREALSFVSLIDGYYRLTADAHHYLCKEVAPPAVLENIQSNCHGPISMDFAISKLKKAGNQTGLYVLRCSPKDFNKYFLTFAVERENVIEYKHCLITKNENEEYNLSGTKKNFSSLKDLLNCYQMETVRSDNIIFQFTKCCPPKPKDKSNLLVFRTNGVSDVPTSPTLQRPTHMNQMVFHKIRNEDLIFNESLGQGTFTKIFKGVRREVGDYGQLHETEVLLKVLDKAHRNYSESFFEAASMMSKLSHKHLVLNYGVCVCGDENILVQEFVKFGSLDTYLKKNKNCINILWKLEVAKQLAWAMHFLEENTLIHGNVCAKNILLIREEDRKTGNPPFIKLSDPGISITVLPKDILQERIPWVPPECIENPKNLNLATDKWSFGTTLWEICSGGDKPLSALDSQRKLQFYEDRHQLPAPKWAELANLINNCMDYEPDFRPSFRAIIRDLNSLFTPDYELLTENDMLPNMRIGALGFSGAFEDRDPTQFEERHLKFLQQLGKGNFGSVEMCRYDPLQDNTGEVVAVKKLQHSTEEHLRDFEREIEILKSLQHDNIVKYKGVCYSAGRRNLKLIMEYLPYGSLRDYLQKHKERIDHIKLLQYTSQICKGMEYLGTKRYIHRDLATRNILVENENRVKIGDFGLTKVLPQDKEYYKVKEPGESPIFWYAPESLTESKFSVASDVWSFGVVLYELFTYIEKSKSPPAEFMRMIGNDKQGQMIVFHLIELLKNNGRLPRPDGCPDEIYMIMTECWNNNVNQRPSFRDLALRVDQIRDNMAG
T1 sequence (P29597 whole entry): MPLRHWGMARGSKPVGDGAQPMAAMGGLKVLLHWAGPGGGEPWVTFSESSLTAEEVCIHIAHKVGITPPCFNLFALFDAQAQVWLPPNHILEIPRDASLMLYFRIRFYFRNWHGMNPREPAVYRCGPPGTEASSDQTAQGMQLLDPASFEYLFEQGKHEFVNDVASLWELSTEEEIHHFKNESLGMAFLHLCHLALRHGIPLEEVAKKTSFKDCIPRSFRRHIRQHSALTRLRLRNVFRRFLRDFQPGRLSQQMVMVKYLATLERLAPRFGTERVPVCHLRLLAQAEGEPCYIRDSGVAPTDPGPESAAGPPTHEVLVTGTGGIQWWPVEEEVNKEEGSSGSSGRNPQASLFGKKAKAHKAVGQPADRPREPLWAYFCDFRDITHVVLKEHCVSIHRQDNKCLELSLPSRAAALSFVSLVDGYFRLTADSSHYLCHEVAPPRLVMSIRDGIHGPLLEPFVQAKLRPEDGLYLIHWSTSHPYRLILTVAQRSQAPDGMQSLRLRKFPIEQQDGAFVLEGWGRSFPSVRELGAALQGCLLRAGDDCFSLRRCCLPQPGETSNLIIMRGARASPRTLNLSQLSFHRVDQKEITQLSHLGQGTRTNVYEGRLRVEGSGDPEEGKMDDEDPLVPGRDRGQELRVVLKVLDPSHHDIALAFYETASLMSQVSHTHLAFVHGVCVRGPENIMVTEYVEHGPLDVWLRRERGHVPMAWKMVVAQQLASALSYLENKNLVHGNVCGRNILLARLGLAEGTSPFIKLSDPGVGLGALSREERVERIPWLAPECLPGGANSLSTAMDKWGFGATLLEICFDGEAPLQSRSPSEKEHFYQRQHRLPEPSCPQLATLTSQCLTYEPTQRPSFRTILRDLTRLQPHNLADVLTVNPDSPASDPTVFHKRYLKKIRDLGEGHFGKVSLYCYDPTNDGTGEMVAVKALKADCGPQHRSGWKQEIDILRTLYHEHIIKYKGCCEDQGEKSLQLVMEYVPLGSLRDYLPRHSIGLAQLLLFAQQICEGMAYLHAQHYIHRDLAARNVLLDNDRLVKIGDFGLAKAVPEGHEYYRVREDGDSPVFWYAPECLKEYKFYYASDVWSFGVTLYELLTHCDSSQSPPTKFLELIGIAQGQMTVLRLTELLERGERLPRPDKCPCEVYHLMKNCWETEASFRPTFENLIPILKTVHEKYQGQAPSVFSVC

IC50 (TYK2) [nM]	IC50 (JAK2) [nM]	Structure (SMILES)
100 to 1000	1000 to 10000	Cc1cnc(Nc2cnn(C)c2)nc1NCc1cccc(CNS(C)(=O)=O)c1 [Example I-402]
100 to 1000	1000 to 10000	COc1c(F)cccc1CNc1nc(Nc2cnn(CC(=O)O)c2)ncc1Cl [Example I-403]
100 to 1000	100 to 1000	COc1c(F)cccc1CNc1nc(Nc2cnn(CC(N)=O)c2)ncc1Cl [Example I-404]
1000 to 10000	1000 to 10000	NC(=O)Cn1cc(Nc2ncc(Cl)c(NCc3cccnc3O)n2)cn1 [Example I-405]
100 to 1000	100 to 1000	Cn1cc(Nc2ncc(Cl)c(NCc3cccnc3F)n2)cn1 [Example I-406]
10 to 100	> 10000	CNC(=O)Cn1cc(Nc2ncc(F)c(NCc3cccc(OC(F)F)c3)n2)cn1 [Example I-408]
10 to 100	1000 to 10000	CNC(=O)Cn1cc(Nc2ncc(F)c(NCc3c(F)ccc(F)c3F)n2)cn1 [Example I-410]
10 to 100	1000 to 10000	CN(C)C(=O)Cn1cc(Nc2ncc(F)c(NCc3c(F)ccc(F)c3F)n2)cn1 [Example I-411]
10 to 100	1000 to 10000	Cn1cc(Nc2ncc(Cl)c(NCc3cc(OC(F)F)ccc3F)n2)cn1 [Example I-412]
10 to 100	100 to 1000	OCCn1cc(Nc2ncc(Cl)c(NCc3cc(OC(F)F)ccc3F)n2)cn1 [Example I-413]
10 to 100	1000 to 10000	CN(C)C(=O)Cn1cc(Nc2ncc(Cl)c(NCc3cc(OC(F)F)ccc3F)n2)cn1 [Example I-414]
100 to 1000	1000 to 10000	CS(=O)(=O)NCc1cccc(CNc2nc(Nc3cnn(CCO)c3)ncc2F)c1 [Example I-415]
100 to 1000	100 to 1000	CN(C)C(=O)Cn1cc(Nc2ncc(Cl)c(NCc3cccc(CNS(C)(=O)=O)c3)n2)cn1 [Example I-416]
100 to 1000	100 to 1000	CS(=O)(=O)NCc1cccc(CNc2nc(Nc3cnn(CCO)c3)ncc2Cl)c1 [Example I-417]
10 to 100	100 to 1000	Cc1cnc(Nc2cnn(C)c2)nc1NCc1c(F)cccc1F [Example I-418]
10 to 100	100 to 1000	CNC(=O)Cn1cc(Nc2ncc(C)c(NCc3c(F)cccc3F)n2)cn1 [Example I-419]
10 to 100	100 to 1000	Cc1cnc(Nc2cnn(C)c2)nc1NCc1c(F)ccc(F)c1F [Example I-420]
≤ 10	100 to 1000	CNC(=O)Cn1cc(Nc2ncc(C)c(NCc3c(F)ccc(F)c3F)n2)cn1 [Example I-421]
≤ 10	100 to 1000	Cc1cnc(Nc2cnn(CC(=O)N(C)C)c2)nc1NCc1c(F)ccc(F)c1F [Example I-422]
≤ 10	100 to 1000	Cc1cnc(Nc2cnn(CC(=O)N3CCOCC3)c2)nc1NCc1c(F)ccc(F)c1F [Example I-423]
10 to 100	100 to 1000	Cc1cnc(Nc2cnn(CC(=O)O)c2)nc1NCc1c(F)ccc(F)c1F [Example I-424]
10 to 100	> 10000	O=C(O)Cn1cc(Nc2ncc(F)c(NCc3cccc(OC(F)F)c3)n2)cn1 [Example I-425]
10 to 100	> 10000	COc1ccc(F)c(CNc2nc(Nc3cnn(CC(=O)O)c3)ncc2F)c1F [Example I-426]

IC50 (TYK2) [nM]	IC50 (JAK2) [nM]	Structure (SMILES)
10 to 100	1000 to 10000	COc1ccc(F)c(CNc2nc(Nc3cnn(CC(=O)NC(C)C)c3)ncc2Cl)c1F [Example I-427]
10 to 100	1000 to 10000	COc1ccc(F)c(CNc2nc(Nc3cnn(CC(=O)NCC(C)C)c3)ncc2Cl)c1F [Example I-428]
10 to 100	1000 to 10000	CC(C)(C)NC(=O)Cn1cc(Nc2ncc(F)c(NCc3c(F)cc(F)cc3F)n2)cn1 [Example I-429]
10 to 100	1000 to 10000	CC(C)(CF)NC(=O)Cn1cc(Nc2nccc(NCc3c(F)cc(F)cc3F)n2)cn1 [Example I-430]
10 to 100	> 10000	CC(NC(=O)Cn1cc(Nc2nccc(NCc3c(F)cc(F)cc3F)n2)cn1)C1CCCO1 (centres unmarked) [Example I-431]
10 to 100	1000 to 10000	O=C(Cn1cc(Nc2nccc(NCc3c(F)cc(F)cc3F)n2)cn1)NCC1COCCO1 (centres unmarked) [Example I-432]
100 to 1000	1000 to 10000	Cc1cnc(Nc2cnn(CCO)c2)nc1NCc1ccccc1S(C)(=O)=O [Example I-433]
100 to 1000	1000 to 10000	Cc1cnc(Nc2cnn(CC(N)=O)c2)nc1NCc1ccccc1S(C)(=O)=O [Example I-434]
100 to 1000	1000 to 10000	CS(=O)(=O)c1ccccc1CNc1nc(Nc2cnn(CCO)c2)ncc1F [Example I-435]
100 to 1000	1000 to 10000	CS(=O)(=O)c1ccccc1CNc1nc(Nc2cnn(CC(N)=O)c2)ncc1F [Example I-436]
10 to 100	1000 to 10000	Cc1cccc(F)c1CNc1ccnc(Nc2cnn(C)c2)n1 [Example I-437]
10 to 100	100 to 1000	CNC(=O)Cn1cc(Nc2ncc(Cl)c(NCc3cc(F)ccc3S(C)(=O)=O)n2)cn1 [Example I-438]
100 to 1000	100 to 1000	CS(=O)(=O)c1cccc(CNc2nc(Nc3cnn(CC(N)=O)c3)ncc2Cl)c1 [Example I-439]
10 to 100	1000 to 10000	CS(=O)(=O)c1cccc(CNc2nc(Nc3cnn(CC(=O)NC4CC4)c3)ncc2Cl)c1 [Example I-440]
100 to 1000	1000 to 10000	CS(=O)(=O)c1cccc(CNc2nc(Nc3cnn(CC(=O)NCCO)c3)ncc2Cl)c1 [Example I-441]
1000 to 10000	1000 to 10000	Cn1cc(Nc2ncc(Cl)c(NCc3cccc(CS(C)(=O)=O)c3)n2)cn1 [Example I-442]
100 to 1000	1000 to 10000	CS(=O)(=O)Cc1cccc(CNc2nc(Nc3cnn(CC(N)=O)c3)ncc2Cl)c1 [Example I-443]
10 to 100	100 to 1000	CNC(=O)Cn1cc(Nc2ncc(Cl)c(NCc3cc(S(C)(=O)=O)ccc3OC)n2)cn1 [Example I-444]
100 to 1000	1000 to 10000	CNC(=O)Cn1cc(Nc2ncc(Cl)c(NCc3cccc(CS(C)(=O)=O)c3)n2)cn1 [Example I-445]
10 to 100	1000 to 10000	COc1ccc(S(C)(=O)=O)cc1CNc1nc(Nc2cnn(C)c2)ncc1F [Example I-446]
10 to 100	1000 to 10000	CNC(=O)Cn1cc(Nc2ncc(F)c(NCc3cc(S(C)(=O)=O)ccc3OC)n2)cn1 [Example I-448]
10 to 100	100 to 1000	COc1ccc(S(C)(=O)=O)cc1CNc1nc(Nc2cnn(C)c2)ncc1Cl [Example I-449]
100 to 1000	100 to 1000	CS(=O)(=O)c1ccccc1CNc1nc(Nc2cnn(CC(N)=O)c2)ncc1Cl [Example I-450]

IC50 (TYK2) [nM]	IC50 (JAK2) [nM]	Structure (SMILES)
1000 to 10000	1000 to 10000	CNC(=O)Cn1cc(Nc2ncc(Cl)c(NCc3ccccc3S(C)(=O)=O)n2)cn1 [Example I-451]
100 to 1000	100 to 1000	CN(C)C(=O)Cn1cc(Nc2ncc(Cl)c(NCc3ccccc3S(C)(=O)=O)n2)cn1 [Example I-452]
100 to 1000	100 to 1000	CS(=O)(=O)c1ccccc1CNc1nc(Nc2cnn(CC(=O)N3CCOCC3)c2)ncc1Cl [Example I-453]
10 to 100	1000 to 10000	O=C(Cn1cc(Nc2nccc(NCc3c(F)cc(F)cc3F)n2)cn1)N[C@H]1C[C@H]1F [Example I-454]
≤ 10	1000 to 10000	CC(C)NC(=O)Cn1cc(Nc2ncc(F)c(NCc3c(F)ccc(F)c3F)n2)cn1 [Example I-455]
10 to 100	1000 to 10000	C[C@H](CO)NC(=O)Cn1cc(Nc2nccc(NCc3c(F)cc(F)cc3F)n2)cn1 [Example I-456]
10 to 100	100 to 1000	Cn1cc(Nc2ncc(F)c(NCc3c(Cl)ccc(Cl)c3F)n2)cn1 [Example I-457]
10 to 100	> 10000	CC1(C)CN(C(=O)Cn2cc(Nc3nccc(NCc4c(F)cc(F)cc4F)n3)cn2)C1 [Example I-458]
10 to 100	> 10000	CC1(C)COCCN1C(=O)Cn1cc(Nc2nccc(NCc3c(F)cc(F)cc3F)n2)cn1 [Example I-459]
10 to 100	1000 to 10000	CC(C)(CO)NC(=O)Cn1cc(Nc2nccc(NCc3c(F)cc(F)cc3F)n2)cn1 [Example I-460]
1000 to 10000	1000 to 10000	FCCn1cc(Nc2ncc(Cl)c(NCc3ccccc3)n2)cn1 [Example I-461]
100 to 1000	1000 to 10000	Cn1cc(Nc2ncc(F)c(NCc3c(F)c(F)cc(F)c3F)n2)cn1 [Example I-462]
1000 to 10000	1000 to 10000	Cc1cnc(Nc2cnn(CCC(F)(F)F)c2)nc1NCc1cc(F)cc(F)c1 [Example I-463]
100 to 1000	> 10000	Fc1cc(F)c(CNc2nc(Nc3cnn(CC(F)F)c3)ncc2F)c(F)c1 [Example I-464]
100 to 1000	1000 to 10000	Cc1cnc(Nc2cnn(CC(F)F)c2)nc1NCc1ccc(S(N)(=O)=O)cc1 [Example I-465]
100 to 1000	1000 to 10000	Cc1cnc(Nc2cnn(CC(F)F)c2)nc1NCc1cccc(S(C)(=O)=O)c1 [Example I-466]
1000 to 10000	1000 to 10000	CS(=O)(=O)c1cccc(CNc2nc(Nc3cnn(CC(F)F)c3)ncc2Cl)c1 [Example I-467]
100 to 1000	100 to 1000	Fc1cc(F)c(F)c(CNc2nc(Nc3cnn(CC(F)F)c3)ncc2Cl)c1 [Example I-468]
100 to 1000	100 to 1000	Fc1cccc(F)c1CNc1nc(Nc2cnn(CC(F)F)c2)ncc1Cl [Example I-469]
100 to 1000	100 to 1000	Fc1cc(F)cc(CNc2nc(Nc3cnn(CC(F)F)c3)ncc2Cl)c1 [Example I-470]
1000 to 10000	1000 to 10000	CS(=O)(=O)c1ccccc1CNc1nc(Nc2cnn(CC(F)F)c2)ncc1Cl [Example I-471]
